Laboratory results as given in patent US20260262643A1, “HERBICIDAL BENZOXAZINES” (FMC CORPORATION, priority 2022, published 2026).

How the values were obtained:
green foxtail [1] = assay: Test C preemergence; format: in vivo, Setaria viridis; settings: Preemergence, 1000 g ai/ha; visual rating after 10 days, 0 to 100 scale (0 no effect, 100 complete control)
From the text: (§1) Seeds of plant species selected from barnyardgrass (Echinochloa crusgalli), blackgrass (Alopecurus myosuroides), corn (Zea mays), foxtail, giant (giant foxtail, Setaria faberi), green foxtail (Setaria viridis), goosegrass (Eleusine indica), kochia (Bassia scoparia), oat, wild (wild oat, Avena fatua), pigweed, palmer (palmer amaranth, palmer pigweed, Amaranthus palmeri), Pigweed, Redroot (redroot pigweed, Amaranthus retroflexus), ragweed (common ragweed, Ambrosia artemisiifolia), ryegrass, Italian ([…] ryegrass, Lolium multiflorum), soybean (Glycine max), and wheat (Triticum aestivum) were planted into a blend of loam soil and sand and treated preemergence with a directed soil spray using test chemicals formulated in a non-phytotoxic solvent mixture which included a surfactant. At the same time, plants selected from these crops and weed species and also galium (catchweed bedstraw, Galium aparine) and horseweed (Erigeron canadensis) were planted in pots containing the same blend of loam soil and sand and treated with postemergence applications of test chemicals formulated in the same manner. Plants ranged in height from 2 to 10 cm and were in the one- to two-leaf stage for the postemergence treatment. Treated plants and untreated controls were maintained in a greenhouse for 10 days, after which time all treated plants were compared to untreated controls and visually evaluated for injury. Plant response ratings, summarized in Table C, are based on a 0 to 100 scale where 0 is no effect and 100 is complete control. A dash (-) response means no test result.

galium = assay: Test C postemergence; format: in vivo, Galium aparine; settings: Postemergence, 1000 g ai/ha
From the text: as §1

barnyardgrass [2] = assay: Test C postemergence; format: in vivo, Echinochloa crusgalli; settings: Postemergence, 1000 g ai/ha
From the text: as §1

blackgrass [3] = assay: Test C preemergence; format: in vivo, Alopecurus myosuroides; settings: Preemergence, 1000 g ai/ha; visual rating after 10 days, 0 to 100 scale (0 no effect, 100 complete control)
From the text: as §1

barnyardgrass [4] = assay: Test C preemergence; format: in vivo, Echinochloa crusgalli; settings: Preemergence, 1000 g ai/ha; visual rating after 10 days, 0 to 100 scale (0 no effect, 100 complete control)
From the text: as §1

blackgrass [5] = assay: Test C postemergence; format: in vivo, Alopecurus myosuroides; settings: Postemergence, 1000 g ai/ha
From the text: as §1

pigweed, palmer [6] = assay: Test C postemergence; format: in vivo, Amaranthus palmeri; settings: Postemergence, 1000 g ai/ha
From the text: as §1

pigweed, palmer [7] = assay: Test C preemergence; format: in vivo, Amaranthus palmeri; settings: Preemergence, 1000 g ai/ha; visual rating after 10 days, 0 to 100 scale (0 no effect, 100 complete control)
From the text: as §1

ragweed [8] = assay: Test C postemergence; format: in vivo, Ambrosia artemisiifolia; settings: Postemergence, 1000 g ai/ha
From the text: as §1

kochia [9] = assay: Test C postemergence; format: in vivo, Bassia scoparia; settings: Postemergence, 1000 g ai/ha
From the text: as §1

ryegrass, Italian [10] = assay: Test C postemergence; format: in vivo, Lolium multiflorum; settings: Postemergence, 1000 g ai/ha
From the text: as §1

green foxtail [11] = assay: Test C postemergence; format: in vivo, Setaria viridis; settings: Postemergence, 1000 g ai/ha
From the text: as §1

horseweed = assay: Test C postemergence; format: in vivo, Erigeron canadensis; settings: Postemergence, 1000 g ai/ha
From the text: as §1

ryegrass, Italian [12] = assay: Test C preemergence; format: in vivo, Lolium multiflorum; settings: Preemergence, 1000 g ai/ha; visual rating after 10 days, 0 to 100 scale (0 no effect, 100 complete control)
From the text: as §1

ragweed [13] = assay: Test C preemergence; format: in vivo, Ambrosia artemisiifolia; settings: Preemergence, 1000 g ai/ha; visual rating after 10 days, 0 to 100 scale (0 no effect, 100 complete control)
From the text: as §1

kochia [14] = assay: Test C preemergence; format: in vivo, Bassia scoparia; settings: Preemergence, 1000 g ai/ha; visual rating after 10 days, 0 to 100 scale (0 no effect, 100 complete control)
From the text: as §1

corn [15] = assay: Test C postemergence; format: in vivo, Zea mays; settings: Postemergence, 1000 g ai/ha, 10 days, visual 0 to 100 scale (0 no effect, 100 complete control)
From the text: as §1

corn [16] = assay: Test C preemergence; format: in vivo, Zea mays; settings: Preemergence, 1000 g ai/ha; visual rating after 10 days, 0 to 100 scale (0 no effect, 100 complete control)
From the text: as §1

[17] = 0 to 100 scale, 0 no effect, 100 complete control
[18] = 10 days, visual 0 to 100 scale (0 no effect, 100 complete control)

SMILES	Plant response rating, Foxtail, Green (green foxtail [1])	Plant response rating, Barnyardgrass (barnyardgrass [2]; [17])	Plant response rating, Blackgrass (blackgrass [3])	Plant response rating, Barnyardgrass (barnyardgrass [4])	Plant response rating, Pigweed, Palmer (pigweed, palmer [7])	Plant response rating, Ryegrass, Italian (ryegrass, Italian [12])	Plant response rating, Ragweed (ragweed [13])	Plant response rating, Kochia (kochia [14])	Plant response rating, Galium (galium; [18])	Plant response rating, Blackgrass (blackgrass [5]; [18])	Plant response rating, Pigweed, Palmer (pigweed, palmer [6]; [18])	Plant response rating, Ragweed (ragweed [8]; [18])	Plant response rating, Kochia (kochia [9]; [18])	Plant response rating, Ryegrass, Italian (ryegrass, Italian [10]; [18])	Plant response rating, Foxtail, Green (green foxtail [11]; [18])	Plant response rating, Horseweed (horseweed; [18])	Plant response rating, Barnyardgrass (barnyardgrass [2]; [18])	further results
Cc1cc(-c2cccc(C(=O)N3C[C@H](C)Oc4c(C)cccc43)c2)ccn1 [Compound 163]	10	0	10	0	0	20	0	0										Plant response rating, Galium (galium; [17]): 0; Plant response rating, Blackgrass (blackgrass [5]; [17]): 20; Plant response rating, Pigweed, Palmer (pigweed, palmer [6]; [17]): 30; Plant response rating, Ragweed (ragweed [8]; [17]): 20; Plant response rating, Kochia (kochia [9]; [17]): 50; Plant response rating, Ryegrass, Italian (ryegrass, Italian [10]; [17]): 0; Plant response rating, Foxtail, Green (green foxtail [11]; [17]): 10; Plant response rating, Horseweed (horseweed; [17]): 0
Cc1cnc(-c2cccc(C(=O)N3C[C@H](C)Oc4c(C)cccc43)c2)s1 [Compound 243]	70	10	0	60	0	70	30	0	60	0	60	0	10	50	0	40		
C[C@H]1CN(C(=O)c2cccc(-c3cncc(Cl)c3)c2)c2cccc(Cl)c2O1 [Compound 384]	30		0	0	30	0	0	0	40	10	60	0	50	0	10	0	10	
Cc1cccc2c1O[C@@H](C)CN2C(=O)c1cccc(-n2cncc2C#N)c1 [Compound 309]	90		20	0	70	70	0	10	70	0	70	30	40	10	10	30	10	
Cc1cc(-c2cccc(C(=O)N3C[C@H](C)Oc4c(Cl)cccc43)c2)sn1 [Compound 389]	100		30	70	70	60	20	90	90	10	90	30	80	0	70	0	70	
Cc1nsc(-c2cccc(C(=O)N3C[C@H](C)Oc4c(Cl)cccc43)c2)n1 [Compound 390]	100		20	80	90	80	30	50	80	50	80	30	70	20	20	0	50	
C[C@H]1CN(C(=O)c2cccc(-c3cnnn3C)c2)c2cccc(Cl)c2O1 [Compound 239]	100	30	30	50	80	70	0	30	70	10	70	50	40	0	30	30		Plant response rating, Corn (corn [15]): 0; Plant response rating, Corn (corn [16]): 0
C[C@H]1CN(C(=O)c2cccc(-c3ccc(Cl)nc3)c2)c2cccc(Cl)c2O1 [Compound 383]	20		0	0	10	0	0	0	0	10	50	0	50	0	0	0	10	
C[C@H]1CN(C(=O)c2cccc(-c3ccn(C)n3)c2)c2cccc(Cl)c2O1 [Compound 205]	40	10	0	0	60	40	0	50	0	30	30	20	50	40	30	0		
